Experimental data taken from patent US12391648B2, “Pyridyloxy thioester derivative and preparation method therefor, herbicidal composition, and application” (Qingdao Kingagroot Chemical Compound Co., Ltd., priority 2018, dated 2025).

Experiments:
Indica rice = assay: Post-emergence test experiment (Table 4), crop safety; assay type: in vivo; settings: after 3 weeks
Japonica rice = assay: as above; assay type: in vivo; settings: after 3 weeks
[1] = test system: ALS resistant Cyperus iria; assay: Post-emergence test experiment (Table 4), weed control; assay type: in vivo; settings: after 3 weeks
[2] = test system: ALS resistant Echinochloa crusgalli; assay: as above; assay type: in vivo; settings: after 3 weeks
rice (japonica rice) = assay: Transplanted rice safety evaluation; assay type: in vivo; settings: 1000 g/ha, transplanted 3-leaf stage japonica rice, treated 5 days after transplantation, 21 days after treatment
Excerpt: (§1) The activity level standard of harmful plants destruction (i. e. growth inhibition rate) is as follows: • Level 5: the growth inhibition rate is greater than 85%; • Level 4: the growth inhibition rate is equal to or greater than 60% and less than 85%; • Level 3: the growth inhibition rate is equal to or greater than 40% and less than 60%; • Level 2: the growth inhibition rate is equal to or greater than 20% and less than 40%; • Level 1: the growth inhibition rate is equal to or greater than 5% and less than 20%; • Level 0: the growth inhibition rate is less than 5%;
(§2) Transplanted rice safety evaluation and weed control effect evaluation in rice field:
In addition, the rice field soil that loaded into the 1/1,000,000 ha pot was leveled to keep water storage at 3-4 cm depth. The 3-leaf stage rice (japonica rice) was transplanted at 3 cm of transplanting depth the next day. The compound of the present invention was treated by the same way after 5 days of transplantation.
(§3) The fertility condition of Monochoria vaginalis 14 days and rice 21 days after the treatment of the compound of the invention with the naked eye.

Monochoria vaginalis [3] = assay: Weed control effect evaluation in rice field; assay type: in vivo; settings: 1000 g/ha, paddy water application at 0.5 leaf stage, 14 days after treatment, weeds resistant to pyrazosulfuron-ethyl and penoxsulam
Excerpt: as §1, §2
Rice field soil was loaded into a 1/1,000,000 ha pot. The seeds of Monochoria vaginalis were sowed and gently covered with soil, then left to stand still in greenhouse in the state of 0.5-1 cm of water storage. It was kept at 3-4 cm of water storage thereafter. The weeds were treated by dripping the WP or SC water diluents prepared according to the common preparation method of the compounds of the present invention with pipette homogeneously to achieve specified effective amount when Monochoria vaginalis reached 0. 5 leaf stage.
as §3
Note: The seeds of Monochoria vaginalis were collected from Heilongjing Province of China.

Abutilon theophrasti = assay: Post-emergence test experiment (Table 3, 1000 g/ha); assay type: in vivo; settings: post-emergence spray, after 3 weeks, fresh weight inhibition
Procedure, shortened: (§4)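 Activity graded levels 0-5 by fresh-weight inhibition (level 5 above 85%, level 0 below 5%), assessed 3 weeks after treatment. Plants grown in greenhouse pots were sprayed post-emergence at 2-3 leaves using acetone/tween-80 solutions with methyl oleate synergist (1.5 L/ha).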

Digitaria sanguinalis = assay: as above; assay type: in vivo; settings: post-emergence spray, after 3 weeks, fresh weight inhibition
Procedure, shortened: as §4

Galium spurium = assay: as above; assay type: in vivo; settings: post-emergence spray, after 3 weeks, fresh weight inhibition
Procedure, shortened: as §4

Leptochloa chinensis = assay: as above; assay type: in vivo; settings: post-emergence spray, after 3 weeks, fresh weight inhibition
Procedure, shortened: as §4

Monochoria vaginalis [4] = assay: as above; assay type: in vivo; settings: post-emergence spray, after 3 weeks, fresh weight inhibition
Procedure, shortened: as §4

Setaria viridis = assay: as above; assay type: in vivo; settings: post-emergence spray, after 3 weeks, fresh weight inhibition
Procedure, shortened: as §4

rice = settings: known compound; cited from earlier work
[5] = 600 g/ha active ingredient, plus water 450 kg/ha

Row | SMILES | Indica rice, activity level (growth inhibition rate) (Indica rice; [5]) | Japonica rice, activity level (growth inhibition rate) (Japonica rice; [5]) | ALS resistant Cyperus iria, activity level (growth inhibition rate) [1, 5] | ALS resistant Echinochloa crusgalli, activity level (growth inhibition rate) [2, 5] | Rice, activity standard level 0-5 (safety) (rice (japonica rice)) | Monochoria Vaginalis, activity standard level 0-5 (Monochoria vaginalis [3]) | Activity level (growth inhibition rate) Abutilon theophrasti (Abutilon theophrasti) | Activity level (growth inhibition rate) Digitaria sanguinalis (Digitaria sanguinalis) | Activity level (growth inhibition rate) Galium spurium (Galium spurium) | Activity level (growth inhibition rate) Leptochloa chinensis (Leptochloa chinensis) | Activity level (growth inhibition rate) Monochoria Vaginalis (Monochoria vaginalis [4]) | Activity level (growth inhibition rate) Setaria viridis (Setaria viridis) | Indica rice, activity level (growth inhibition rate) (Indica rice; 300 g/ha) | Japonica rice, activity level (growth inhibition rate) (Japonica rice; 300 g/ha) | ALS resistant Cyperus iria, activity level (growth inhibition rate) ([1]; 300 g/ha) | ALS resistant Echinochloa crusgalli, activity level (growth inhibition rate) ([2]; 300 g/ha) | safety and selectivity in rice (rice)
1 | CSC(=O)C(C)Oc1nc(F)c(Cl)c(N)c1Cl (stereo not drawn) [Compound 4] | 0 (Level 0: the growth inhibition rate is less than 5%) | 0 (Level 0: the growth inhibition rate is less than 5%) | 5 (Level 5: the growth inhibition rate is greater than 85%) | 5 (Level 5: the growth inhibition rate is greater than 85%) | 0 (Level 0: the growth inhibition rate is less than 5%) | 5 (Level 5: the growth inhibition rate is greater than 85%) | 5 (Level 5: the growth inhibition rate is greater than 85%) | 5 (Level 5: the growth inhibition rate is greater than 85%) | 5 (Level 5: the growth inhibition rate is greater than 85%) | 5 (Level 5: the growth inhibition rate is greater than 85%) | 5 (Level 5: the growth inhibition rate is greater than 85%) | 5 (Level 5: the growth inhibition rate is greater than 85%) | – | – | – | – | –
2 | CC(Oc1nc(F)c(Cl)c(N)c1Cl)C(=O)O (stereo not drawn) [Control compound A, reference compound] | 3 (Level 3: the growth inhibition rate is equal to or greater than 40% and less than 60%) | 3 (Level 3: the growth inhibition rate is equal to or greater than 40% and less than 60%) | 5 (Level 5: the growth inhibition rate is greater than 85%) | 5 (Level 5: the growth inhibition rate is greater than 85%) | – | – | – | – | – | – | – | – | 2 (Level 2: the growth inhibition rate is equal to or greater than 20% and less than 40%) | 3 (Level 3: the growth inhibition rate is equal to or greater than 40% and less than 60%) | 4 (Level 4: the growth inhibition rate is equal to or greater than 60% and less than 85%) | 4 (Level 4: the growth inhibition rate is equal to or greater than 60% and less than 85%) | poor safety and low selectivity in rice
3 | CC(Oc1nc(F)c(Cl)c(N)c1Cl)C(=O)SC1CCCCC1 (stereo not drawn) [Compound 82] | 0 (Level 0: the growth inhibition rate is less than 5%) | 0 (Level 0: the growth inhibition rate is less than 5%) | 5 (Level 5: the growth inhibition rate is greater than 85%) | 5 (Level 5: the growth inhibition rate is greater than 85%) | 0 (Level 0: the growth inhibition rate is less than 5%) | 5 (Level 5: the growth inhibition rate is greater than 85%) | 5 (Level 5: the growth inhibition rate is greater than 85%) | 5 (Level 5: the growth inhibition rate is greater than 85%) | 5 (Level 5: the growth inhibition rate is greater than 85%) | 5 (Level 5: the growth inhibition rate is greater than 85%) | 5 (Level 5: the growth inhibition rate is greater than 85%) | 5 (Level 5: the growth inhibition rate is greater than 85%) | – | – | – | – | –
